In US12612395B2, “Rocaglate derivatives and uses thereof” (TRUSTEES OF BOSTON UNIVERSITY, priority 2023, dated 2026):

System: GBM0308 non-CSCs
Assay: Dose-response killing of GBM non-CSCs (PI/Hoechst, Celigo cytometer)
Format: cell-based
Details: GBM0308 non-CSCs; for Non-CSCs Max. observed efficacy (% dead cells): Table 1, up to 10 μM
Excerpt: The inventors first evaluated a cohort of seven rocaglate translation inhibitors (1, 3-7, and 9, FIG. 1A and Table 1, compounds 2 and 8 were not tested due to unavailability). To assay for compounds that selectively affect GBM CSCs, the inventors employed the patient-derived tumor-initiating cell (TIC) cell line […] that forms neurospheres (consisting exclusively of tumor-initiating cells or CSCs) when cultured in neurobasal (NBE) medium. Upon exposure to serum and growth factor withdrawal, however, the cell line differentiates, acquires a flattened morphology, and forms a non-CSC population.^20 Thus, compounds can be tested in parallel to assess their effect on GBM CSCs vs. GBM non-CSCs as separate populations with a clean and robust response. This approach has been previously used to perform RNAi-based genetic screens to identify modulators of CSCs.^20 In this study, GBM0308 cells, cultured in stem cell conditions to form CSCs or in medium containing serum to induce differentiation into a non-CSC population, were treated in parallel with compounds at varying doses. Three days post-treatment, propidium iodide (PI) and Hoechst staining were performed and quantified using a Celigo image cytometer. Hoechst dye stained all […] nucleated cells, while PI exclusively stained dead cells. Cell viability and the percentage of cell death were then determined.
Cell Culture: Glioblastoma stem cell lines GBM0308, BT145, and BT112 were cultured in neurobasal (NBE medium) containing N-2 and B-27 supplements, EGF, bFGF, L-glutamine, and Penicillin-Streptomycin), as described previously.^19 Adherent GBM cells were cultured in serum-containing DMEM media (Invitrogen) supplemented with 10% fetal bovine serum (Corning Cellgro™). Cells were incubated at 37° C. and 5% CO2 to allow neurosphere formation. For seeding and subculturing, the neurospheres were gently trypsinized with 0.025% trypsin to form a single-cell suspension.
Dose-Response Testing in GBM Cells: Briefly, on day 1, cells were seeded in triplicate. For CSCs, 1500 cells/well were plated in a low attachment 96-well plate with NBE media and incubated for 3 days at 37° C. and 5% CO2 to allow the formation of neurospheres. For non-CSCs, 3000 cells/well were plated in a 96-well plate with DMEM media supplemented with 10% FBS. Similarly, the assay plates were also incubated for the same duration. Compound treatments started on day 4. Each compound was resuspended in DMSO and then diluted to different concentrations in media to a final concentration of DMSO less than 1%. The compounds were added at concentrations of 10, 3.3, 1.11, 0.37, 0.12, 0.041, 0.013, and 0.004 µM, respectively. DMSO-treated cells served as a control. After 72 h incubation with the compounds, fluorescent stains, propidium iodide, and Hoechst 33342 (Life Technologies, Carlsbad, CA), were used to stain the GBM cells to determine cell viability. A staining solution in 1×PBS was prepared by mixing PI and Hoechst 33342 to working concentrations of 2.5 μM and 20 μM, respectively. 20 μL of this staining solution was added per well, and plates were incubated at 37° C. and 5% CO2 for 60 min. After incubation, plates were read by Celigo imaging cytometer using an inbuilt Celigo application; Cell Viability (Dead+Total). For the viability measurement, the total number of neurospheres/cells and dead neurospheres/cells in each well were counted by the cytometer. The percentage of PI+ cells was normalized to DMSO and plotted against the drug concentration to calculate the EC50 with a four-parameter, variable-slope dose-response curve with an upper constraint of <100% dead cells and a lower constraint of =0% dead cells (GraphPad Prism v.10.0.0). For all dose response experiments, the experimental maximal efficacy (maximum observed % cell death) is reported. Relative EC50 values are reported for all compounds killing >50% of cells.

| Compound | Non-CSCs Max. observed efficacy (% dead cells) (72 h) [%] | cytotoxic activity against non-CSCs, in words | Emax (Homo sapiens, Table 2, 72 h, highest tested concentration 10 μM, read-out: Non-CSCs Max. observed efficacy (% dead cells)) [%] |
| --- | --- | --- | --- |
| CONC(=O)[C@H]1[C@@H](O)[C@@]2(O)c3c(OC)cc(OC)cc3O[C@@]2(c2ccc(Br)cc2)[C@@H]1c1ccccc1 [(−)-7, SDS-1-021] | 31 |  |  |
| CONC(=O)[C@H]1[C@@H](O)[C@@]2(O)c3c(OC)cc(OC)cc3O[C@@]2(c2ccc(OC)cc2)[C@@H]1c1ccccc1 [(−)-5, CR-1-31b, reference compound] | 22 |  |  |
| COc1cc(OC)c2c(c1)O[C@@]1(c3ccc(Br)cc3)[C@H](c3ccccc3)[C@@H](C(=O)NS(=O)(=O)N(C)C)[C@@H](O)[C@@]21O [(−)-20, (1R,2R,3S,3aR,8bS)-3a-(4-bromophenyl)-N—(N,N-dimethylsulfamoyl)-1,8b-dihydroxy-6,8-dimethoxy-3-phenyl-2,3,3a,8b-tetrahydro-1H-cyclopenta[b]benzofuran-2-carboxamide] |  | limited detectable effects | 26 |
